According to the supplement of paper PMC10307832:

How the values were obtained:
Test in all cases: relative viability (nuclei count vs DMSO), 5 days (fraction); higher = more cells survive
BEN = tested on: BEN
Summary of the method: (§1)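 Medians of duplicate plates are given as relative viability. That measure is the nuclei count in treated wells divided by the count in vehicle wells. Counts were taken on 4× images of lung cancer cell lines in 1536-well plates, 5 days after pin-tool dosing the day after seeding with one drug alone or a fixed anchor-drug dose plus five library-drug doses (not always all listed) in √10 steps.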

CAL-12T = tested on: CAL-12T
Summary of the method: as §1

EKVX = tested on: EKVX
Summary of the method: as §1

HCC-15 = tested on: HCC-15
Summary of the method: as §1

HCC-44 = tested on: HCC-44
Summary of the method: as §1

LCLC-103H = tested on: LCLC-103H
Summary of the method: as §1

LOU-NH91 = tested on: LOU-NH91
Summary of the method: as §1

NCI-H1355 = tested on: NCI-H1355
Summary of the method: as §1

NCI-H1395 = tested on: NCI-H1395
Summary of the method: as §1

NCI-H1437 = tested on: NCI-H1437
Summary of the method: as §1

NCI-H1563 = tested on: NCI-H1563
Summary of the method: as §1

NCI-H1650 = tested on: NCI-H1650
Summary of the method: as §1

NCI-H1651 = tested on: NCI-H1651
Summary of the method: as §1

NCI-H1734 = tested on: NCI-H1734
Summary of the method: as §1

NCI-H1755 = tested on: NCI-H1755
Summary of the method: as §1

NCI-H1975 = tested on: NCI-H1975
Summary of the method: as §1

NCI-H2023 = tested on: NCI-H2023
Summary of the method: as §1

NCI-H2085 = tested on: NCI-H2085
Summary of the method: as §1

NCI-H2342 = tested on: NCI-H2342
Summary of the method: as §1

NCI-H358 = tested on: NCI-H358
Summary of the method: as §1

NCI-H441 = tested on: NCI-H441
Summary of the method: as §1

NCI-H460 = tested on: NCI-H460
Summary of the method: as §1

NCI-H838 = tested on: NCI-H838
Summary of the method: as §1

C[C@@H]1CN(CC(=O)Nc2ccc3c(c2)Cc2cccc(-c4cc(=O)cc(N5CCOCC5)o4)c2S3)C[C@H](C)O1 + CCNC(=O)c1noc(-c2cc(C(C)C)c(O)cc2O)c1-c1ccc(CN2CCOCC2)cc1 [Luminespib] (partner 0.01 µM)
relative viability (BEN; first compound 0.04 µM): 0.264 | relative viability (BEN; first compound 0.1265 µM): 0.252 | relative viability (BEN; first compound 0.4 µM): 0.463 | relative viability (BEN; first compound 4 µM): 0.322 | relative viability (CAL-12T; first compound 0.04 µM): 0.302 | relative viability (CAL-12T; first compound 0.1265 µM): 0.408 | relative viability (CAL-12T; first compound 0.4 µM): 0.613 | relative viability (CAL-12T; first compound 4 µM): 0.168 | relative viability (EKVX; first compound 0.04 µM): 0.802 | relative viability (EKVX; first compound 0.1265 µM): 0.874 | relative viability (EKVX; first compound 0.4 µM): 0.955 | relative viability (EKVX; first compound 4 µM): 0.814 | relative viability (HCC-15; first compound 0.04 µM): 0.358 | relative viability (HCC-15; first compound 0.1265 µM): 0.282 | relative viability (HCC-15; first compound 0.4 µM): 0.284 | relative viability (HCC-15; first compound 4 µM): 0.27 | relative viability (HCC-44; first compound 0.04 µM): 0.9 | relative viability (HCC-44; first compound 0.1265 µM): 1.04 | relative viability (HCC-44; first compound 0.4 µM): 1.19 | relative viability (HCC-44; first compound 4 µM): 0.949 | relative viability (LCLC-103H; first compound 0.04 µM): 0.949 | relative viability (LCLC-103H; first compound 0.1265 µM): 0.971 | relative viability (LCLC-103H; first compound 0.4 µM): 0.906 | relative viability (LCLC-103H; first compound 4 µM): 0.72 | relative viability (LOU-NH91; first compound 0.04 µM): 0.39 | relative viability (LOU-NH91; first compound 0.1265 µM): 0.358 | relative viability (LOU-NH91; first compound 0.4 µM): 0.3 | relative viability (LOU-NH91; first compound 4 µM): 0.371 | relative viability (NCI-H1355; first compound 0.04 µM): 0.678 | relative viability (NCI-H1355; first compound 0.1265 µM): 0.693 | relative viability (NCI-H1355; first compound 0.4 µM): 0.704 | relative viability (NCI-H1355; first compound 4 µM): 0.805 | relative viability (NCI-H1395; first compound 0.04 µM): 0.695 | relative viability (NCI-H1395; first compound 0.1265 µM): 0.627 | relative viability (NCI-H1395; first compound 0.4 µM): 0.69 | relative viability (NCI-H1395; first compound 4 µM): 0.741 | relative viability (NCI-H1437; first compound 0.04 µM): 1.2 | relative viability (NCI-H1437; first compound 0.1265 µM): 1.16 | relative viability (NCI-H1437; first compound 0.4 µM): 1.22 | relative viability (NCI-H1437; first compound 4 µM): 0.891 | relative viability (NCI-H1563; first compound 0.04 µM): 0.512 | relative viability (NCI-H1563; first compound 0.1265 µM): 0.514 | relative viability (NCI-H1563; first compound 0.4 µM): 0.477 | relative viability (NCI-H1563; first compound 4 µM): 0.514 | relative viability (NCI-H1650; first compound 0.04 µM): 0.212 | relative viability (NCI-H1650; first compound 0.1265 µM): 0.23 | relative viability (NCI-H1650; first compound 0.4 µM): 0.18 | relative viability (NCI-H1650; first compound 4 µM): 0.171 | relative viability (NCI-H1651; first compound 0.04 µM): 0.891 | relative viability (NCI-H1651; first compound 0.1265 µM): 0.719 | relative viability (NCI-H1651; first compound 0.4 µM): 0.885 | relative viability (NCI-H1651; first compound 4 µM): 0.634 | relative viability (NCI-H1734; first compound 0.04 µM): 0.264 | relative viability (NCI-H1734; first compound 0.1265 µM): 0.212 | relative viability (NCI-H1734; first compound 0.4 µM): 0.195 | relative viability (NCI-H1734; first compound 4 µM): 0.291 | relative viability (NCI-H1755; first compound 0.04 µM): 0.398 | relative viability (NCI-H1755; first compound 0.1265 µM): 0.361 | relative viability (NCI-H1755; first compound 0.4 µM): 0.45 | relative viability (NCI-H1755; first compound 4 µM): 0.258 | relative viability (NCI-H1975; first compound 0.04 µM): 0.289 | relative viability (NCI-H1975; first compound 0.1265 µM): 0.199 | relative viability (NCI-H1975; first compound 0.4 µM): 0.26 | relative viability (NCI-H1975; first compound 4 µM): 0.158 | relative viability (NCI-H2023; first compound 0.04 µM): 0.691 | relative viability (NCI-H2023; first compound 0.1265 µM): 0.75 | relative viability (NCI-H2023; first compound 0.4 µM): 0.543 | relative viability (NCI-H2023; first compound 4 µM): 0.37 | relative viability (NCI-H2085; first compound 0.04 µM): 0.477 | relative viability (NCI-H2085; first compound 0.1265 µM): 0.509 | relative viability (NCI-H2085; first compound 0.4 µM): 0.404 | relative viability (NCI-H2085; first compound 4 µM): 0.397 | relative viability (NCI-H2342; first compound 0.04 µM): 0.706 | relative viability (NCI-H2342; first compound 0.1265 µM): 0.641 | relative viability (NCI-H2342; first compound 0.4 µM): 0.722 | relative viability (NCI-H2342; first compound 4 µM): 0.662 | relative viability (NCI-H358; first compound 0.04 µM): 0.429 | relative viability (NCI-H358; first compound 0.1265 µM): 0.308 | relative viability (NCI-H358; first compound 0.4 µM): 0.399 | relative viability (NCI-H358; first compound 4 µM): 0.233 | relative viability (NCI-H441; first compound 0.04 µM): 0.305 | relative viability (NCI-H441; first compound 0.1265 µM): 0.354 | relative viability (NCI-H441; first compound 0.4 µM): 0.274 | relative viability (NCI-H441; first compound 4 µM): 0.309 | relative viability (NCI-H460; first compound 0.04 µM): 0.0317 | relative viability (NCI-H460; first compound 0.1265 µM): 0.0406 | relative viability (NCI-H460; first compound 0.4 µM): 0.0348 | relative viability (NCI-H460; first compound 4 µM): 0.0326 | relative viability (NCI-H838; first compound 0.04 µM): 0.383 | relative viability (NCI-H838; first compound 0.1265 µM): 0.278 | relative viability (NCI-H838; first compound 0.4 µM): 0.286 | relative viability (NCI-H838; first compound 4 µM): 0.258

CC(C)Oc1cc(Nc2nc(N[C@@H](C)c3ccc(F)cn3)ncc2Cl)n[nH]1 [AZ23] + CCNC(=O)c1noc(-c2cc(C(C)C)c(O)cc2O)c1-c1ccc(CN2CCOCC2)cc1 [Luminespib] (partner 0.01 µM)
relative viability (BEN; first compound 0.01 µM): 0.287 | relative viability (BEN; first compound 0.03162 µM): 0.378 | relative viability (BEN; first compound 0.3162 µM): 0.243 | relative viability (CAL-12T; first compound 0.03162 µM): 0.364 | relative viability (CAL-12T; first compound 0.3162 µM): 0.568 | relative viability (EKVX; first compound 0.01 µM): 0.861 | relative viability (EKVX; first compound 0.03162 µM): 0.84 | relative viability (EKVX; first compound 0.3162 µM): 0.924 | relative viability (HCC-15; first compound 0.01 µM): 0.435 | relative viability (HCC-15; first compound 0.03162 µM): 0.243 | relative viability (HCC-15; first compound 0.3162 µM): 0.338 | relative viability (HCC-44; first compound 0.01 µM): 0.863 | relative viability (HCC-44; first compound 0.03162 µM): 1.22 | relative viability (HCC-44; first compound 0.3162 µM): 1.22 | relative viability (LCLC-103H; first compound 0.01 µM): 1.04 | relative viability (LCLC-103H; first compound 0.03162 µM): 0.923 | relative viability (LCLC-103H; first compound 0.3162 µM): 1.03 | relative viability (LOU-NH91; first compound 0.01 µM): 0.387 | relative viability (LOU-NH91; first compound 0.03162 µM): 0.349 | relative viability (LOU-NH91; first compound 0.3162 µM): 0.324 | relative viability (NCI-H1355; first compound 0.01 µM): 0.671 | relative viability (NCI-H1355; first compound 0.03162 µM): 0.768 | relative viability (NCI-H1355; first compound 0.3162 µM): 0.715 | relative viability (NCI-H1395; first compound 0.03162 µM): 0.658 | relative viability (NCI-H1395; first compound 0.3162 µM): 0.771 | relative viability (NCI-H1437; first compound 0.01 µM): 1.29 | relative viability (NCI-H1437; first compound 0.03162 µM): 1.25 | relative viability (NCI-H1437; first compound 0.3162 µM): 1.2 | relative viability (NCI-H1563; first compound 0.01 µM): 0.544 | relative viability (NCI-H1563; first compound 0.03162 µM): 0.571 | relative viability (NCI-H1563; first compound 0.3162 µM): 0.596 | relative viability (NCI-H1650; first compound 0.03162 µM): 0.202 | relative viability (NCI-H1650; first compound 0.3162 µM): 0.195 | relative viability (NCI-H1651; first compound 0.03162 µM): 0.753 | relative viability (NCI-H1651; first compound 0.3162 µM): 0.672 | relative viability (NCI-H1734; first compound 0.01 µM): 0.184 | relative viability (NCI-H1734; first compound 0.03162 µM): 0.181 | relative viability (NCI-H1734; first compound 0.3162 µM): 0.169 | relative viability (NCI-H1755; first compound 0.01 µM): 0.293 | relative viability (NCI-H1755; first compound 0.03162 µM): 0.605 | relative viability (NCI-H1755; first compound 0.3162 µM): 0.634 | relative viability (NCI-H1975; first compound 0.01 µM): 0.234 | relative viability (NCI-H1975; first compound 0.03162 µM): 0.195 | relative viability (NCI-H1975; first compound 0.3162 µM): 0.223 | relative viability (NCI-H2023; first compound 0.03162 µM): 0.829 | relative viability (NCI-H2023; first compound 0.3162 µM): 0.674 | relative viability (NCI-H2085; first compound 0.01 µM): 0.321 | relative viability (NCI-H2085; first compound 0.03162 µM): 0.422 | relative viability (NCI-H2085; first compound 0.3162 µM): 0.463 | relative viability (NCI-H2342; first compound 0.01 µM): 0.658 | relative viability (NCI-H2342; first compound 0.03162 µM): 0.679 | relative viability (NCI-H2342; first compound 0.3162 µM): 0.718 | relative viability (NCI-H358; first compound 0.01 µM): 0.416 | relative viability (NCI-H358; first compound 0.03162 µM): 0.395 | relative viability (NCI-H358; first compound 0.3162 µM): 0.349 | relative viability (NCI-H441; first compound 0.01 µM): 0.28 | relative viability (NCI-H441; first compound 0.03162 µM): 0.344 | relative viability (NCI-H441; first compound 0.3162 µM): 0.376 | relative viability (NCI-H460; first compound 0.01 µM): 0.0317 | relative viability (NCI-H460; first compound 0.03162 µM): 0.0332 | relative viability (NCI-H460; first compound 0.3162 µM): 0.0248 | relative viability (NCI-H838; first compound 0.01 µM): 0.229 | relative viability (NCI-H838; first compound 0.03162 µM): 0.278 | relative viability (NCI-H838; first compound 0.3162 µM): 0.345
